Test results reported in US6670446B1, “N1 modified glycopeptides” (Eli Lilly and Company, priority 1998, dated 2003).

How the values were obtained:
Assay type in all cases: cell-based
[1] = system: Enterococcus faecium 180-1; experiment: MIC, standard broth micro-dilution assay, EF 180-1
Method: (§1) The antibacterial efficacy of the present compounds is illustrated by Table III. The minimal inhibitory concentrations (MICs) were determined using a standard broth micro-dilution assay.

[2] = system: Escherichia coli EC14; experiment: MIC, standard broth micro-dilution assay, EC 14
Method: as §1

[3] = system: Sensitive Enterococcus faecium and faecalis; experiment: MIC, standard broth micro-dilution assay, Sensitive; conditions: geometric mean of 4-6 isolates
Method: as §1

[4] = system: Staphylococcus haemolyticus 415; experiment: MIC, standard broth micro-dilution assay, SH 415
Method: as §1

[5] = system: Enterococcus gallinarum 245; experiment: MIC, standard broth micro-dilution assay, EG 245
Method: as §1

[6] = system: Staphylococcus haemolyticus 105; experiment: MIC, standard broth micro-dilution assay, SH 105
Method: as §1

[7] = system: Staphylococcus aureus 491; experiment: MIC, standard broth micro-dilution assay, SA 491
Method: as §1

[8] = system: Haemophilus influenzae RD; experiment: MIC, standard broth micro-dilution assay, HFRD
Method: as §1

[9] = system: Staphylococcus aureus X778; experiment: MIC, standard broth micro-dilution assay, SA X778
Method: as §1

[10] = system: Staphylococcus aureus 489; experiment: MIC, standard broth micro-dilution assay, SA 489
Method: as §1

[11] = system: Staphylococcus epidermidis 270; experiment: MIC, standard broth micro-dilution assay, SE 270
Method: as §1

[12] = system: Staphylococcus aureus X400; experiment: MIC, standard broth micro-dilution assay, SA X400
Method: as §1

[13] = system: Staphylococcus aureus SA1199A; experiment: MIC, standard broth micro-dilution assay, SA 1199A
Method: as §1

[14] = system: Staphylococcus aureus 447; experiment: MIC, standard broth micro-dilution assay, SA 447
Method: as §1

[15] = system: Staphylococcus aureus 446; experiment: MIC, standard broth micro-dilution assay, SA 446
Method: as §1

[16] = system: Enterococcus faecalis 276; experiment: MIC, standard broth micro-dilution assay, EF 276
Method: as §1

[17] = system: Enterococcus faecalis 2041; experiment: MIC, standard broth micro-dilution assay, EF 2041
Method: as §1

[18] = system: Resistant Enterococcus faecium and faecalis; experiment: MIC, standard broth micro-dilution assay, Resistant; conditions: geometric mean of 4-6 isolates
Method: as §1

[19] = system: Enterococcus faecium 180; experiment: MIC, standard broth micro-dilution assay, EF 180
Method: as §1

[20] = system: Staphylococcus aureus S13E
Method: as §1

[21] = system: Staphylococcus aureus SA1199; experiment: MIC, standard broth micro-dilution assay, SA 1199
Method: as §1

| Structure (SMILES) | minimal inhibitory concentration (MIC), EF 180-1 [1] | minimal inhibitory concentration (MIC), EC 14 [2] | minimal inhibitory concentration (MIC), Sensitive [3] | minimal inhibitory concentration (MIC), SH 415 [4] | minimal inhibitory concentration (MIC), EG 245 [5] | minimal inhibitory concentration (MIC), SH 105 [6] | minimal inhibitory concentration (MIC), SA 491 [7] | minimal inhibitory concentration (MIC), HFRD [8] | minimal inhibitory concentration (MIC), SA X778 [9] | minimal inhibitory concentration (MIC), SA 489 [10] | minimal inhibitory concentration (MIC), SE 270 [11] | minimal inhibitory concentration (MIC), SA X400 [12] | minimal inhibitory concentration (MIC), SA 1199A [13] | minimal inhibitory concentration (MIC), SA 447 [14] | minimal inhibitory concentration (MIC), SA 446 [15] | minimal inhibitory concentration (MIC), EF 276 [16] | minimal inhibitory concentration (MIC), EF 2041 [17] | minimal inhibitory concentration (MIC), Resistant [18] | minimal inhibitory concentration (MIC), EF 180 [19] | minimal inhibitory concentration (MIC), SA S13E [20] | other results |
| --- | --- | --- | --- | --- | --- | --- | --- | --- | --- | --- | --- | --- | --- | --- | --- | --- | --- | --- | --- | --- | --- |
| CC(C)CC(N)C(=O)NC1C(=O)NC(CC(N)=O)C(=O)NC2C(=O)NC3C(=O)NC(C(=O)NC(C(=O)O)c4cc(O)cc(O)c4-c4cc3ccc4O)C(OC3CC(C)(N)C(O)C(C)O3)c3ccc(c(Cl)c3)Oc3cc2cc(c3OC2OC(CO)C(O)C(O)C2OC2CC(C)(NCc3ccc(-c4ccccc4)cc3)C(O)C(C)O2)Oc2ccc(cc2Cl)C1O [Example 27, N^1-L-leucine derivative of N^DISACC-(p-phenylbenzyl)desleucylA82846B] | 0.25 | >64 | 1 | 2 | 0.5 | 0.125 | 1 | 64 | 1 | 4 | 0.25 | 2 | 0.5 | 1 | 2 | 1 | 1 | 16 | 4 | 2 | minimal inhibitory concentration (MIC), SA 1199 [21]: 1 |
| CC1OC(OC2C(Oc3c4cc5cc3Oc3ccc(cc3Cl)[C@@H](O)[C@@H](NC(=O)CCCCCCCc3ccccc3)C(=O)N[C@@H](CC(N)=O)C(=O)N[C@H]5C(=O)N[C@H]3C(=O)NC(C(=O)N[C@H](C(=O)O)c5cc(O)cc(O)c5-c5cc3ccc5O)[C@H](OC3CC(C)(N)C(O)C(C)O3)c3ccc(c(Cl)c3)O4)OC(CO)C(O)C2O)CC(C)(N)C1O (stereo partly drawn) [Example 2, N^1-(8-phenyl-n-octanoyl)desleucylA82846B] | ≦.06 | >64 | 1.5 | 8 | 0.25 | 1 | ≦.06 | no growth | ≦.06 | ≦.06 | 0.125 | ≦.06 | ≦.06 | ≦.06 | ≦.06 | ≦.06 | ≦.06 | >128 | 8 | ≦.06 | minimal inhibitory concentration (MIC), SA 1199 [21]: 0.125 |
| CC1OC(OC2c3ccc(c(Cl)c3)Oc3cc4cc(c3OC3OC(CO)C(O)C(O)C3OC3CC(C)(NCc5ccc(-c6ccccc6)cc5)C(O)C(C)O3)Oc3ccc(cc3Cl)C(O)C(NC(=O)C(Cc3ccc(Cl)cc3)NC(=O)OC(C)(C)C)C(=O)NC(CC(N)=O)C(=O)NC4C(=O)NC3C(=O)NC2C(=O)NC(C(=O)O)c2cc(O)cc(O)c2-c2cc3ccc2O)CC(C)(N)C1O [Example 21, N^1-[N-BOC-D-3-(p-chlorophenyl)alanine] derivative of N^DISACC-(p-phenylbenzyl)desleucylA82846B] | 0.5 | >64 | 1.5 | 2 | 1 | 2 | 0.5 | 2 | 0.5 | 0.25 | 0.5 | 0.5 | no growth | 0.5 | 0.5 | 1 | 0.5 | 11 | 1 | 0.5 | minimal inhibitory concentration (MIC), SA 1199 [21]: 0.5 |
| CC(C)C(C(=O)NC1C(=O)NC(CC(N)=O)C(=O)NC2C(=O)NC3C(=O)NC(C(=O)NC(C(=O)O)c4cc(O)cc(O)c4-c4cc3ccc4O)C(OC3CC(C)(N)C(O)C(C)O3)c3ccc(c(Cl)c3)Oc3cc2cc(c3OC2OC(CO)C(O)C(O)C2OC2CC(C)(N)C(O)C(C)O2)Oc2ccc(cc2Cl)C1O)N(C)C(=O)OC(C)(C)C [Example 41, N^1-(N-BOC-N-methyl-D-valine) derivative of desleucylA82846B] | 4 | >64 | 84 | 64 | >64 | 16 | 4 | no | 8 | 16 | 8 | 16 | 8 | 32 | 32 | 8 | 8 | >128 | >64 | 16 | minimal inhibitory concentration (MIC), SA 1199 [21]: 16 |
| CC(C)CC(NC(=O)OC(C)(C)C)C(=O)NC1C(=O)NC(CC(N)=O)C(=O)NC2C(=O)NC3C(=O)NC(C(=O)NC(C(=O)O)c4cc(O)cc(O)c4-c4cc3ccc4O)C(OC3CC(C)(N)C(O)C(C)O3)c3ccc(c(Cl)c3)Oc3cc2cc(c3OC2OC(CO)C(O)C(O)C2OC2CC(C)(NCc3ccc(-c4ccccc4)cc3)C(O)C(C)O2)Oc2ccc(cc2Cl)C1O [Example 11, N^1-(N-BOC-L-leucine) derivative of N^DISACC-(p-phenylbenzyl)desleucylA82846B] | 0.25 | >64 | 1.7 | 1 | 1 | 0.5 | 2 | >64 | 0.5 | 2 | 0.5 | 1 | 1 | 1 | 1 | 2 | 1 | 45 | 8 | 1 | minimal inhibitory concentration (MIC), SA 1199 [21]: 1 |
